# Measured values reported in patent publication US6824967B2, “Method of preparing dye solution, and methods of producing silver halide emulsion and silver halide photographic material” (Fuji Photo Film Co., Ltd., priority 2002, dated 2004).
# Experiments:
# [1] = pKa printed beside the base in Table 1; cited from earlier work
# [2] = pH value of dye solution measured with a pH-meter; assay type: physicochemical; details: 1.0 g dye in 200 ml 1:1 methanol/water
# [3] = Degree of dissolution of dye, visual observation after ultrasonic irradiation; assay type: physicochemical; set-up: key: good: when it was in a completely dissolved state; poor: when it left some residue; failed: when it was in a hardly dissolved state; details: 1.0 g dye in 200 ml 1:1 methanol/water, ultrasonic 30 min at 25° C.
# [4] = triethanolamine, 1.0 equivalents to dye
# [5] = triethanolamine, 1.2 equivalents to dye
# [6] = triethylamine, 0.8 equivalents to dye
# [7] = triethylamine, 1.0 equivalents to dye
# [8] = 1,8-diazabicyclo-7-undecene, 1.0 equivalents to dye
# [9] = 2,4,6-trimethylpyridine, 1.0 equivalents to dye
# [10] = N-methylmorpholine, 1.0 equivalents to dye
# [11] = N,N-diisopropylethylamine, 1.0 equivalents to dye
# [12] = pyridine, 1.0 equivalents to dye
compound,measurement,setting,value
CN1CCOCC1 [N-methylmorpholine],Base (pKa),[1],N-methylmorpholine (7.38)
O=C(O)C[n+]1c(C=C2Sc3ccc(Br)cc3N2CCCS(=O)(=O)[O-])sc2ccsc21 [Dye S-39],pH Value of dye solution,[2]; base absent,6.3
same,pH Value of dye solution,[2]; [4],7.5
same,pH Value of dye solution,[2]; [5],7.6
same,pH Value of dye solution,[2]; [6],7.4
same,pH Value of dye solution,[2]; [7],9.7
same,Degree of dissolution,[3]; base absent,failed
same,Degree of dissolution,[3]; [4],good
same,Degree of dissolution,[3]; [5],good
same,Degree of dissolution,[3]; [6],poor
same,Degree of dissolution,[3]; [7],good
O=C(O)C[n+]1c(C=C2Sc3ccc(Cl)cc3N2CCCS(=O)(=O)[O-])sc2cc(Cl)sc21 [Dye S-37],pH Value of dye solution,[2]; [8],11.0
same,pH Value of dye solution,[2]; [9],7.2
same,pH Value of dye solution,[2]; [10],7.1
same,pH Value of dye solution,[2]; base absent,6.2
same,pH Value of dye solution,[2]; [4],7.4
same,pH Value of dye solution,[2]; [5],7.5
same,pH Value of dye solution,[2]; [6],7.1
same,pH Value of dye solution,[2]; [7],9.6
same,Degree of dissolution,[3]; [8],good
same,Degree of dissolution,[3]; [9],good
same,Degree of dissolution,[3]; [10],good
same,Degree of dissolution,[3]; base absent,failed
same,Degree of dissolution,[3]; [4],good
same,Degree of dissolution,[3]; [5],good
same,Degree of dissolution,[3]; [6],poor
same,Degree of dissolution,[3]; [7],good
O=C(O)C[n+]1c(C=C2Sc3ccc(Cl)cc3N2CCCS(=O)(=O)[O-])sc2ccc(Cl)cc21 [Dye S-14],pH Value of dye solution,[2]; [8],10.8
same,pH Value of dye solution,[2]; [11],10.1
same,pH Value of dye solution,[2]; base absent,6.1
same,pH Value of dye solution,[2]; [12],5.7
same,pH Value of dye solution,[2]; [4],7.3
same,pH Value of dye solution,[2]; [5],7.4
same,pH Value of dye solution,[2]; [6],6.9
same,pH Value of dye solution,[2]; [7],9.4
same,Degree of dissolution,[3]; [8],good
same,Degree of dissolution,[3]; [11],good
same,Degree of dissolution,[3]; base absent,failed
same,Degree of dissolution,[3]; [12],failed
same,Degree of dissolution,[3]; [4],good
same,Degree of dissolution,[3]; [5],good
same,Degree of dissolution,[3]; [6],poor
same,Degree of dissolution,[3]; [7],good
"Cc1cc(C)nc(C)c1 [2,4,6-Trimethylpyridine]",Base (pKa),[1],"2,4,6-trimethylpyridine (7.43)"
